The source of these data is patent US20180344680A1, “COMPOSITIONS AND METHODS FOR TREATMENT, AMELIORATION, AND PREVENTION OF DIABETES-RELATED SKIN ULCERS” (THE ARIZONA BOARD OF REGENTS ON BEHALF OF THE UNIVERSITY OF …, priority 2015, published 2018).

The experiment relates to NRF2 pathway. In words: Immunoblot of NRF2 pathway in HaCaT cells under high glucose. The class given is cell-based, human. Conditions: HaCaT in high glucose (HG); 5 μmol/L SF or 20 μmol/L CA; 48 h. How it is done:
Human immortalized keratinocytes HaCaT were obtained from the Arizona Cancer Center (see, e.g., Boukamp P, et al., J Cell Biol 106:761-771, 1988). Cells were grown in Dulbecco's modified Eagle's medium (DMEM) containing low glucose (LG, 5.5 mmol/L) and 10% fetal bovine serum (FBS) in an incubator at 37° C. with 5% CO2. For the experiments, the cells were starved in serum-free LG DMEM for 24 h, then either maintained in LG DMEM or switched to high glucose (HG, 25 mmol/L) DMEM for 2 days (see, e.g., Zheng H, et al., Diabetes 60:3055-3066, 2011; Lan C C, et al., Br J Dermatol 159:1103-1115, 2008). For the treatments, the cells were dosed with 5 μmol/L SF or 20 μmol/L CA.
siRNA transfections. HaCaT cells were transfected with either a non-specific, control small interfering RNA (Con-siRNA, #1027281, Qiagen, Valencia, Calif.) or an NRF2-specific siRNA (#S100657937) using the HiPerfect transfection reagent (Qiagen) according to the manufacturer's instructions. Briefly, cells were maintained in LG or HG DMEM for 2 days and then transfected with either control or NRF2 siRNA for migration, proliferation, and apoptosis experiments. For the ROS detection, cells were maintained in LG DMEM and transfected with either control or NRF2 siRNA; 24 h later, the cells were switched to HG DMEM and treated as indicated.
Cultured HaCaT cells were harvested in 1× sample buffer (50 mM Tris-HCl pH 6.8, 2% sodium dodecyl sulfate (SDS), 10% glycerol, 100 mM dithiothreitol (DTT), 0.1% bromophenol blue), boiled and sonicated. Total cell lysates were resolved by SDS-PAGE and subjected to immunoblot analyses with the indicated antibodies. For the detection of the secreted proteins TGF-β1 and MMP9, cells were incubated 24 h in serum-free media before harvesting the medium. TGF-β1 was measured using the Quantikine human TGF-β1 immunoassay kit (R&D systems; Minneapolis, Minn.) according to the manufacturer's instructions. The absorbance at 450 nm was measured using a Synergy 2 microplate reader (BioTek, Winooski, Vt.) and the amount of TGF-β1 was calculated by standard curve. MMP9 activity was evaluated by gelatin zymography as described elsewhere (see, e.g., Toth M, et al., Methods Mol Biol 878:121-135, 2012; Zhu P, et al., Exp Dermatol 21:123-129, 2012). Briefly, the supernatant was concentrated using Amicon Ultra-0.5 mL centrifugal filters (Merck Milipore, Darmstadt, Germany) (10 kDa cut off), mixed with non-reducing sample buffer and subjected to electrophoresis in 10% polyacrylamide-0.1% w/v gelatin gels. The gels were then washed in 2.5% Triton X-100 to remove SDS and incubated with developing buffer (50 mM Tris-HCl, pH 7.6, 1 μM ZnCl2 and 5 mM CaCl2) at 37° C. for 36 h. Gels were subsequently stained with 0.2% Coomassie blue and were analyzed with ImageJ.
(In general: In western blotting, separated proteins are transferred to a membrane and probed.)

Turning to `O=CC=Cc1ccccc1` [CA, Cinnamaldehyde], the “protein levels of HO-1, AKR1C1, and NQO1” value is listed as “further induced”; the “protein levels of NRF2” value is on record as “further NRF2 induction”.
In the same order, the values of `C[S@@+]([O-])CCCCN=C=S` [SF, L-sulforaphane] are “further induced” and “further NRF2 induction”.
